Assays:
human GPR84 receptor = molecular target: T1, human GPR84 receptor (Homo sapiens, UniProt Q9NQS5); experiment: Gαi biosensor BRET assay in HEK293 cells (antagonism of ZQ-16); format: cell-based; settings: for IC50: HEK293 cells, antagonism of 200 nmol/L ZQ-16; for inhibition at 10 µM: HEK293, single concentration 10 μM (designated F); for inhibition at 2 µM: HEK293, single concentration 2 μM (designated A)
T1 construct: host or cells: HEK293, transient transfection
How it was run: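 Antagonist mode: test compound 5 min at 37° C, followed by ZQ-16 agonist (200 nmol/L, 5 min, room temperature), in HEK293 cells transfected with GPR84 plus Rluc8-tagged Gαi2, GFP10-Gγ2 and Gβ1. Readout as GFP10/Rluc8 emission ratio after 5 μmol/L coelenterazine 400A, net of Rluc8-only and vehicle signal.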

neutrophils = experiment: Neutrophil migration assay (embelin as chemotactic agent, ATPlite readout); format: cell-based; settings: for IC50: Neutrophil, human neutrophils, embelin as chemotactic agent, read-out: Human Neutrophil migration inhibition IC50; for Human Neutrophil migration inhibition - fold potency to Control Compound: normalized to GPR84 antagonist Control Compound (average IC50 131 nM)
Protocol: Neutrophil migration assay. After isolation, neutrophils were resuspended in chemotaxis buffer (DMEM supplemented with 10 mM HEPES) at a concentration of 8.9×10^6 cells/ml. In a 96-well plate, 20 μl of compound solution in chemotaxis buffer is added to 180 μl of cell suspension. After incubation at 37° C. for 30 minutes, 75 μl of cell suspension is transferred in the upper chamber of a 5 μm pore size Corning HTS transwell. 235 μl of chemotaxis buffer containing the chemotactic agent (embelin) is added to the lower chamber of the transwell. After a 60-minute incubation time at 37° C. in 5%0 C02, the upper chamber of the transwell is removed and the plate is centrifuged at 1500 rpm for 6 minutes. Supermatant is removed and cells resuspended in 100 ul of PBS. ATP content was assessed using ATPlite Luminescence Assay System® according to manufacturer instructions (Perkin Elmer, Buckinghamshire, UK). Briefly, 50 μl of ATPlite buffer and 50 μl of lysis solution is added to the lower chamber of the Transwells. After incubation at room temperature, in the dark with constant agitation for 5 minutes, 150 μl of cell lysate is transferred in a 96 wells white plate and incubated for 10 minutes in the dark. Luminescence is read on a TECAN plate reader, Infinite M1000 (Tecan, Morrisville, NC).
The compound numbers correspond to the compound numbers in Table 1. […] Normalization of the results takes the donor's variation into account.

T1 sequence (Q9NQS5 whole entry): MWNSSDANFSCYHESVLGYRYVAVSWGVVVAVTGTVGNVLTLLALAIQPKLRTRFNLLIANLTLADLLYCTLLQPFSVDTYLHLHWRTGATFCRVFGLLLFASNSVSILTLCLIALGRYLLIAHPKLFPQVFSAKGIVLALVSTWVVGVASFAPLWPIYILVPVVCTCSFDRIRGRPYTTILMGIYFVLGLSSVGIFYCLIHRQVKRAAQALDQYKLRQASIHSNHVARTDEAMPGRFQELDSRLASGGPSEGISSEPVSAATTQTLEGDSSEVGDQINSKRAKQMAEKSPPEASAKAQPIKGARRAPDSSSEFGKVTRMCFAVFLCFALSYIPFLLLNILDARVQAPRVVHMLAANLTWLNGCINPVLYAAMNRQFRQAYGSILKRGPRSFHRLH

| SMILES | inhibition at 15 µM (human GPR84 receptor; HEK293, single concentration 15 μM (designated H)) | IC50 (human GPR84 receptor) | IC50 (neutrophils) | inhibition at 10 µM (human GPR84 receptor) | inhibition at 2 µM (human GPR84 receptor) | inhibition at 25 µM (human GPR84 receptor; HEK293, single concentration 25 μM (designated I)) | inhibition at 6 µM (human GPR84 receptor; HEK293, single concentration 6.00 μM (designated D°)) | Human Neutrophil migration inhibition - fold potency to Control Compound (neutrophils) |
| --- | --- | --- | --- | --- | --- | --- | --- | --- |
| Cc1cc(C#CC(C)(C)O)ccc1-c1cn(CC2CCCCO2)nn1 (stereo not drawn) [Compound I-79] | > 75% | > 3 µM | 0.3 to 1 µM | – | – | – | – | C (IC50≤0.5-fold relative to Control Compound) |
| Cc1cc(C#CCNCc2ccccc2)ccc1-c1cn(CC2CCCCO2)nn1 (stereo not drawn) [Compound I-86] | – | 0.3 to 1 µM | 0.3 to 1 µM | – | – | – | – | C (IC50≤0.5-fold relative to Control Compound) |
| Cc1cc(C#CC2CC2)cnc1-c1cn(CC2CCCCO2)nn1 (stereo not drawn) [Compound I-107] | – | 1 to 3 µM | ≤ 0.3 µM | > 75% | – | – | – | A (IC50 of >1.0-fold relative to Control Compound) |
| Cc1cc(C#CCN2CCC(F)(F)CC2)ccc1-c1cn(CC2CCCCO2)nn1 (stereo not drawn) [Compound I-118] | – | > 3 µM | ≤ 0.3 µM | > 75% | – | – | – | C (IC50≤0.5-fold relative to Control Compound) |
| Cc1cc(C#CCN2CC(C)(C)C2)ccc1-c1cn(CC2CCCCO2)nn1 (stereo not drawn) [Compound I-119] | – | 1 to 3 µM | 0.3 to 1 µM | – | – | – | – | C (IC50≤0.5-fold relative to Control Compound) |
| Cc1cc(C#CCN(C)CC2CC2)ccc1-c1cn(CC2CCCCO2)nn1 (stereo not drawn) [Compound I-121] | – | 0.3 to 1 µM | 0.3 to 1 µM | > 75% | – | – | – | C (IC50≤0.5-fold relative to Control Compound) |
| Cc1cc(C#CCN(C)CC2(C(F)(F)F)CC2)ccc1-c1cn(CC2CCCCO2)nn1 (stereo not drawn) [Compound I-138] | – | 1 to 3 µM | 1 to 3 µM | 50 to 75% | – | – | – | C (IC50≤0.5-fold relative to Control Compound) |
| Cc1cc(C#CCNc2ccccc2)ccc1-c1cn(C[C@H]2CCCCO2)nn1 [Compound I-166] | – | 0.3 to 1 µM | ≤ 0.3 µM | > 75% | – | – | – | A (IC50 of >1.0-fold relative to Control Compound) |
| CC(C)Oc1cc(C#CC2CC2)ccc1-c1cn(CC2CCCCO2)nn1 (stereo not drawn) [Compound I-187] | – | > 3 µM | ≤ 0.3 µM | – | – | – | – | B (IC50 of >0.5-≤1.0-fold relative to Control Compound) |
| CN(C)c1cc(C#CCNCc2ccccc2)ccc1-c1cn(CC2CCCCO2)nn1 (stereo not drawn) [Compound I-188] | – | > 3 µM | ≤ 0.3 µM | – | – | – | – | A (IC50 of >1.0-fold relative to Control Compound) |
| Clc1cc(C#CC2CC2)ccc1-c1cn(CC2CCCCO2)nn1 (stereo not drawn) [Compound I-315] | – | > 3 µM | 0.3 to 1 µM | – | – | > 75% | – | C (IC50≤0.5-fold relative to Control Compound) |
| CC(C)Oc1cc(C#CCN2CC(C)(C)C2)ccc1-c1cn(C[C@H]2CCCCO2)nn1 [Compound I-413] | – | 0.3 to 1 µM | ≤ 0.3 µM | – | > 75% | – | – | B (IC50 of >0.5-≤1.0-fold relative to Control Compound) |
| COC(c1cn(CC2CCCCO2)nn1)c1cc(C#CC2CC2)ccc1C (stereo not drawn) [Compound I-417] | – | 0.3 to 1 µM | ≤ 0.3 µM | – | > 75% | – | – | A (IC50 of >1.0-fold relative to Control Compound) |
| Cc1ccc(C#CC2CC2)cc1Cc1nnn(CC2CCCCO2)n1 (stereo not drawn) [Compound I-418] | – | 0.3 to 1 µM | 1 to 3 µM | – | > 75% | – | – | C (IC50≤0.5-fold relative to Control Compound) |
| Cc1cc(C#CC2CC2)cnc1-c1cn(CC2CCCCO2)cn1 (stereo not drawn) [Compound I-424] | – | 1 to 3 µM | ≤ 0.3 µM | > 75% | – | – | – | A (IC50 of >1.0-fold relative to Control Compound) |
| Cc1cc(N2CC(C)(NCc3ccccn3)C2)ccc1-c1cn(CC2CCCCO2)nn1 (stereo not drawn) [Compound I-441] | – | 1 to 3 µM | ≤ 0.3 µM | 50 to 75% | – | – | – | A (IC50 of >1.0-fold relative to Control Compound) |
| Cc1cc(N2CC(C)(OCc3ccccn3)C2)ccc1-c1cn(CC2CCCCO2)nn1 (stereo not drawn) [Compound I-452] | – | 0.3 to 1 µM | ≤ 0.3 µM | > 75% | – | – | – | A (IC50 of >1.0-fold relative to Control Compound) |
| Cc1cc(C#CC2CC2)ccc1-c1cn(CC2CCC(C)(C)CO2)nn1 (stereo not drawn) [Compound I-455] | – | 1 to 3 µM | ≤ 0.3 µM | > 75% | – | – | – | B (IC50 of >0.5-≤1.0-fold relative to Control Compound) |
| Cc1cc(C#CCn2cc(-c3ccc(N(C)C)cc3)nn2)ccc1-c1cn(CC2CCCCO2)nn1 (stereo not drawn) [Compound I-456] | – | ≤ 0.3 µM | ≤ 0.3 µM | – | > 75% | – | – | A (IC50 of >1.0-fold relative to Control Compound) |

Continued, in another order:

| inhibition at 15 µM (human GPR84 receptor; HEK293, single concentration 15 μM (designated H)) | IC50 (human GPR84 receptor) | IC50 (neutrophils) | inhibition at 10 µM (human GPR84 receptor) | inhibition at 2 µM (human GPR84 receptor) | inhibition at 25 µM (human GPR84 receptor; HEK293, single concentration 25 μM (designated I)) | inhibition at 6 µM (human GPR84 receptor; HEK293, single concentration 6.00 μM (designated D°)) | SMILES | Human Neutrophil migration inhibition - fold potency to Control Compound (neutrophils) |
| --- | --- | --- | --- | --- | --- | --- | --- | --- |
| – | > 3 µM | 0.3 to 1 µM | 50 to 75% | – | – | – | FC(F)(F)c1cc(C#CC2CC2)ccc1-c1cn(CC2CCCCO2)nn1 (stereo not drawn) [Compound I-81] | C (IC50≤0.5-fold relative to Control Compound) |
| – | 1 to 3 µM | 1 to 3 µM | – | – | – | – | CN(C)c1cc(C#CC2CC2)ccc1-c1cn(CC2CCCCO2)nn1 (stereo not drawn) [Compound I-87] | C (IC50≤0.5-fold relative to Control Compound) |
| – | 1 to 3 µM | 1 to 3 µM | – | – | – | – | CC(C)c1cc(C#CC2CC2)ccc1-c1cn(CC2CCCCO2)nn1 (stereo not drawn) [Compound I-88] | C (IC50≤0.5-fold relative to Control Compound) |
| – | 1 to 3 µM | 1 to 3 µM | > 75% | – | – | – | Cc1cc(C#CC2(O)CCCCC2)ccc1-c1cn(CC2CCCCO2)nn1 (stereo not drawn) [Compound I-94] | C (IC50≤0.5-fold relative to Control Compound) |
| – | ≤ 0.3 µM | ≤ 0.3 µM | – | – | – | – | Cc1cc(C#CCN2CCN(c3ccccc3)CC2)ccc1-c1cn(CC2CCCCO2)nn1 (stereo not drawn) [Compound I-120] | B (IC50 of >0.5-≤1.0-fold relative to Control Compound) |
| – | – | 1 to 3 µM | – | 25 to 50% | – | – | Cc1cc(N2CC3(CCCN3Cc3ccccc3)C2)ccc1-c1cn(CC2CCCCO2)nn1 (stereo not drawn) [Compound I-149] | C (IC50≤0.5-fold relative to Control Compound) |
| – | 1 to 3 µM | ≤ 0.3 µM | 50 to 75% | – | – | – | Cc1cc(C#CCNC(=O)OC(C)(C)C)ccc1-c1cn(CC2CCCCO2)nn1 (stereo not drawn) [Compound I-177] | A (IC50 of >1.0-fold relative to Control Compound) |
| – | 1 to 3 µM | 0.3 to 1 µM | > 75% | – | – | – | Cc1cc(C#CC2CC2)cnc1-c1cn(C[C@H]2CCCCO2)nn1 [Compound I-245] | C (IC50≤0.5-fold relative to Control Compound) |
| – | ≤ 0.3 µM | 0.3 to 1 µM | > 75% | – | – | – | Cc1cc(N2CC(C)(CNc3ccccc3)C2)ccc1-c1cn(CC2CCCCO2)nn1 (stereo not drawn) [Compound I-411] | B (IC50 of >0.5-≤1.0-fold relative to Control Compound) |
| – | 0.3 to 1 µM | ≤ 0.3 µM | – | – | – | > 75% | Cc1cc(N2CCN(Cc3ccccn3)CC2)ccc1-c1cn(C[C@H]2CCCCO2)nn1 [Compound I-423] | A (IC50 of >1.0-fold relative to Control Compound) |
| – | 0.3 to 1 µM | ≤ 0.3 µM | > 75% | – | – | – | Cc1cc(N2CC(C)(N(C)Cc3ccccn3)C2)ccc1-c1cn(CC2CCCCO2)nn1 (stereo not drawn) [Compound I-451] | A (IC50 of >1.0-fold relative to Control Compound) |
| – | ≤ 0.3 µM | ≤ 0.3 µM | > 75% | – | – | – | Cc1cc(C#CCn2cc(-c3ccc([N+](=O)[O-])cc3)nn2)ccc1-c1cn(CC2CCCCO2)nn1 (stereo not drawn) [Compound I-454] | A (IC50 of >1.0-fold relative to Control Compound) |
| – | 1 to 3 µM | ≤ 0.3 µM | > 75% | – | – | – | CCc1cc(N2CCN(Cc3ccccn3)CC2)cnc1-c1cn(C[C@H]2CCCCO2)nn1 [Compound I-459] | C (IC50≤0.5-fold relative to Control Compound) |

Source: patent US12617777B2, “GPR84 antagonists and uses thereof” (Liminal BioSciences Limited, priority 2021, dated 2026)
